Reference: publication PMC7759869 (Biomedicines, 2020)
pIC50: −log10 of the molar value. Read-outs that look alike come from different tables or passages of the source. Marks after values point to notes of the source that are not given here.

Assays:
[1] = molecular target: cabozantinib oxidation in pooled human liver microsomes (Homo sapiens, UniProt P08684); test: Inhibition study: effect of CYP inhibitors on cabozantinib oxidation in pooled human liver microsomes; conditions: pooled human liver microsomes, 50 µM cabozantinib
Protocol: (§1) Inhibition studies in pooled human liver microsomes were conducted with six inhibitors. […] The IC50 values for employed inhibitors were determined by the procedure described previously. […] Then, mixtures were incubated for a further 20 min at 37 °C.

human liver microsomes [2] = test: Correlation of CYP- and FMO-linked catalytic activities with amounts of cabozantinib metabolites formed in microsomes; type: in vitro ADME; conditions: twelve human microsomal samples; for Correlation coefficient (r) with CYP2C19 activity: (S)-Mephenytoin-4′-hydroxylase; for Correlation coefficient (r) with CYP2B6 activity: (S)-Mephenytoin-N-demethylase; for Correlation coefficient (r) with CYP2D6 activity: Buferalol-1′-hydroxylase; for Correlation coefficient (r) with CYP2E1 activity: Chlorzoxazone-6-hydroxylase; for Correlation coefficient (r) with CYP2A6 activity: Coumarine-7-hydroxylase; for Correlation coefficient (r) with CYP2C9 activity: Diclofenac-4′-hydroxylase; for Correlation coefficient (r) with CYP4A11 activity: Lauric acid-12-hydroxylase; for Correlation coefficient (r) with FMO activity: Methyl-p-tolyl sulfide oxidase; for Correlation coefficient (r) with CYP2C8 activity: Paclitaxel-6α-hydroxylase; for Correlation coefficient (r) with CYP1A2 activity: Phenacetin-O-deethylase; for Correlation coefficient (r) with Total CYPs: amount of metabolite formed vs total CYP content
Protocol: Data are expressed as mean ± SD. Data were analyzed using GraphPad Prism 7 (San Diego, CA, USA) using ANOVA with post-hoc Tukey HSD Test. All p-values are two-tailed and considered significant at the 0.05 level. […] Correlation coefficients (r) were based on a sample size of twelve for human microsomes. All p-values are two-tailed and considered significant at the 0.05 level.
To clarify these correlations, multivariate analysis was used to investigate the dependence of metabolite formation on these CYP activities. Activities of CYP2A6, -2B6 and -2C8 in each microsomal sample were combined in pairs with the activities of CYP3A4 to see if any combination of the activities led to an improvement in the correlation with CYP3A4.

CYP3A4 = CYP3A4 (Homo sapiens, UniProt P08684); test: Kinetics of cabozantinib oxidation by recombinant CYP3A4 (Supersomes); type: in vitro ADME; set-up: purchased Corning (Corning, NY, USA); host or cells: insect cells (baculovirus); conditions: formation of the metabolite from cabozantinib by CYP3A4 without cyt b5
Text: Cabozantinib was from MedChemExpress (Monmouth Junction, NJ, USA). Standard of cabozantinib N-oxide was purchased from Toronto Research Chemicals (Toronto, Canada). Ketoconazole, NADPH and other chemicals were all purchased from Merck (Darnstadt, Germany). The purity of all chemicals met the standards of American Chemical Society, unless otherwise noted. Male human hepatic microsomes (pooled sample) (sample LOT: 3043885) were from Gentest Corp. (Woburn, MA, USA). Microsomes from livers of twelve human donors were obtained from Gentest Corp. (Woburn, MA, USA) (Lot. no. HG43-1, HG103, HG74, HG93, HG24, HG27, HG23, HG32, HK31, HK34, HG03 and HG42). Each human microsomal sample was characterized for CYP, FMO, total protein contents and specific CYP activities by Gentest Corp. and reanalyzed by us by assays described in the protocols of Gentest Corp. Our data were similar to those reported by Gentest Corp. (Table 1). Human recombinant enzymes were used in the forms of Supersomes™ and obtained from Corning (Corning, NY, USA). In Supersomes™, microsomal fractions were isolated from insect cells that were transfected with baculovirus constructs containing cDNA of human CYP enzymes (CYP1A1/2, 1B1, 2A6, 2B6, 2C8/9/18/19/, 2D6, 2E1, 3A4). The Supersomes™ also express NADPH:CYP oxidoreductase (POR). […]

CYP3A4 + cyt b5 = molecular target: T1, CYP3A4 + cyt b5 (Homo sapiens, UniProt P08684); test: Cabozantinib oxidation by recombinant CYP3A4 in the presence of cyt b5 (Supersomes); type: in vitro ADME; conditions: for VMax: formation of the metabolite from cabozantinib by CYP3A4 + cyt b5
T1 construct: purchased Corning (Corning, NY, USA); host or cells: insect cells (baculovirus)
Text: (§2) Cabozantinib was from MedChemExpress (Monmouth Junction, NJ, USA). Standard of cabozantinib N-oxide was purchased from Toronto Research Chemicals (Toronto, Canada). Ketoconazole, NADPH and other chemicals were all purchased from Merck (Darnstadt, Germany). The purity of all chemicals met the standards of American Chemical Society, unless otherwise noted. Male human hepatic microsomes (pooled sample) (sample LOT: 3043885) were from Gentest Corp. (Woburn, MA, USA). Microsomes from livers of twelve human donors were obtained from Gentest Corp. (Woburn, MA, USA) (Lot. no. HG43-1, HG103, HG74, HG93, HG24, HG27, HG23, HG32, HK31, HK34, HG03 and HG42). Each human microsomal sample was characterized for CYP, FMO, total protein contents and specific CYP activities by Gentest Corp. and reanalyzed by us by assays described in the protocols of Gentest Corp. Our data were similar to those reported by Gentest Corp. (Table 1). Human recombinant enzymes were used in the forms of Supersomes™ and obtained from Corning (Corning, NY, USA). In Supersomes™, microsomal fractions were isolated from insect cells that were transfected with baculovirus constructs containing cDNA of human CYP enzymes (CYP1A1/2, 1B1, 2A6, 2B6, 2C8/9/18/19/, 2D6, 2E1, 3A4). The Supersomes™ also express NADPH:CYP oxidoreductase (POR). However, because they are microsomes (particles of broken endoplasmic reticulum), other enzymes (proteins) of the endoplasmic reticulum membrane (like NADH:cytochrome b5 reductase and cytochrome b5) are also expressed at basal levels in these Supersomes™. We also utilized Supersomes™, which overexpressed cytochrome b5, in a molar ratio of CYP to cytochrome b5 of 1 to 5. In Supersomes™, where cytochrome b5 was not overexpressed (see above), pure cytochrome b5 was added to reach a molar ratio of CYP to cytochrome b5 of 1 to 5. Reconstitution of Supersomes™ with purified cytochrome b5 was performed as described previously. Human recombinant FMOs and AO were also used in the forms of Supersomes™ (Gentest Corp., Woburn, MA, USA). These microsomal fractions were isolated from insect cells that are transfected with baculovirus constructs containing cDNA of human FMO1, FMO3, FMO5 or AO enzymes.
(§3) The reaction was initiated by adding NADPH. In control incubations, either microsomes or CYP (FMO, AO) or NADPH were omitted. […] The reaction was stopped by extraction with ethyl acetate (2 × 1 mL). […] Cabozantinib metabolites separated by HPLC were characterized by mass spectroscopy (see further details below).

human liver microsomes [3] = test: Oxidation of cabozantinib by hepatic microsomes of individual human donors (HPLC of metabolites); type: in vitro ADME; conditions: 50 µM cabozantinib, 20 min
Text: as §2, §3

CYPs in human liver = test: Contributions of CYP enzymes to formation of cabozantinib metabolites in human livers; type: in vitro ADME; conditions: calculated from velocities with cyt b5 and CYP expression levels in human liver
human liver microsomes [4] = test: Oxidation of cabozantinib by hepatic microsomes of individual human donors (HPLC of metabolites); type: in vitro ADME; conditions: 50 µM cabozantinib, 20 min; remark: listed apart in the source
MET = conditions: read-out: IC50 for MET; estimated; cited from earlier work
RET = conditions: estimated; cited from earlier work
VEGFR2 = conditions: read-out: IC50 for VEGFR2; estimated; cited from earlier work
[5] = molecular target: CYP3A (cabozantinib oxidation: formation of cabozantinib N-oxide) (Homo sapiens, UniProt P08684); test: Inhibition study: effect of CYP inhibitors on cabozantinib oxidation in pooled human liver microsomes; conditions: human
Protocol: as §1

[6] = molecular target: CYP3A (cabozantinib oxidation: formation of monohydroxy cabozantinib) (Homo sapiens, UniProt P08684); test: as above; conditions: human
Protocol: as §1

[7] = molecular target: CYP3A (cabozantinib oxidation: formation of desmethyl cabozantinib) (Homo sapiens, UniProt P08684); test: as above; conditions: human
Protocol: as §1

[8] = human liver microsomes sample HG03
[9] = human liver microsomes sample HG24
[10] = human liver microsomes sample HG32
[11] = human liver microsomes sample HG42
[12] = human liver microsomes sample HG43
[13] = human liver microsomes sample HG74
[14] = human liver microsomes sample HG93
[15] = human liver microsomes sample HG103
[16] = human liver microsomes sample HK31
[17] = human liver microsomes sample HK34
[18] = human liver microsomes sample HK23
[19] = human liver microsomes sample HK27

T1 sequence (P08684 whole entry): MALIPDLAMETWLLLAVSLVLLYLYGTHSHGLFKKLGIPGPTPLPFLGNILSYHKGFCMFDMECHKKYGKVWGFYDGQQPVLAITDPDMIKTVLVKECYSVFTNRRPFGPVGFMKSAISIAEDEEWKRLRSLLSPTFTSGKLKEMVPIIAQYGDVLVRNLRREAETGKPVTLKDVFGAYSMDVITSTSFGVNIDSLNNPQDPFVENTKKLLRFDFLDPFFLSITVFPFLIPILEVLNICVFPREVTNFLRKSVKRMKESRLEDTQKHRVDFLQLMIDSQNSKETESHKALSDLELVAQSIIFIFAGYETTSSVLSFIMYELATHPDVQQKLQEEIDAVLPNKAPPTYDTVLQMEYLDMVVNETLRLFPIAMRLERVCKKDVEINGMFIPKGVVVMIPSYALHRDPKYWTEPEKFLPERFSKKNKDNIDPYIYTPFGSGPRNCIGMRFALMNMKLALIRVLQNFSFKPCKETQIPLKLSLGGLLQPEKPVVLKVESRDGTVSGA
Chain of cabozantinib oxidation in pooled human liver microsomes (P08684 2-503): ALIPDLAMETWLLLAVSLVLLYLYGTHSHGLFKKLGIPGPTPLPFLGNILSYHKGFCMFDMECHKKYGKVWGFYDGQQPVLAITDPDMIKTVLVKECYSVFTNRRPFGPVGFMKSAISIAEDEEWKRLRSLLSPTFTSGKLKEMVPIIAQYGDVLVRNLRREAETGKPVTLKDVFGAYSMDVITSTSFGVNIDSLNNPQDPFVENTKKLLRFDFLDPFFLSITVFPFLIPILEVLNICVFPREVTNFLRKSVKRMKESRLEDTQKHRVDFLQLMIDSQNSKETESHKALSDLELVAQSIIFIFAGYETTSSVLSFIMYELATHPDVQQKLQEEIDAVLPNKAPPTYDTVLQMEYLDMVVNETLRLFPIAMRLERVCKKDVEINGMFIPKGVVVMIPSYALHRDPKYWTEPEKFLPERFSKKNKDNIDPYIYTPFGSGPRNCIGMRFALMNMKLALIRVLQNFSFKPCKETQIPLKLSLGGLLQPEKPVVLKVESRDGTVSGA
Chain of CYP3A4 (P08684 whole entry): as the sequence (P08684 whole entry) above
Chain of CYP3A (cabozantinib oxidation: formation of cabozantinib N-oxide) (P08684 2-503): as the sequence (P08684 2-503) above
Chain of CYP3A (cabozantinib oxidation: formation of monohydroxy cabozantinib) (P08684 2-503): as above
Chain of CYP3A (cabozantinib oxidation: formation of desmethyl cabozantinib) (P08684 2-503): as above

Row | SMILES | Correlation coefficient (r) with CYP2C19 activity (human liver microsomes [2]) | Correlation coefficient (r) with CYP2B6 activity (human liver microsomes [2]) | Correlation coefficient (r) with CYP2D6 activity (human liver microsomes [2]) | Correlation coefficient (r) with CYP2E1 activity (human liver microsomes [2]) | Correlation coefficient (r) with CYP2A6 activity (human liver microsomes [2]) | Correlation coefficient (r) with CYP2C9 activity (human liver microsomes [2]) | Correlation coefficient (r) with CYP4A11 activity (human liver microsomes [2]) | Correlation coefficient (r) with FMO activity (human liver microsomes [2]) | Correlation coefficient (r) with CYP2C8 activity (human liver microsomes [2]) | Correlation coefficient (r) with CYP1A2 activity (human liver microsomes [2]) | Correlation coefficient (r) with Total CYPs (human liver microsomes [2]) | VMax (CYP3A4) [peak area/min/nmol CYP] | VMax (CYP3A4 + cyt b5) [peak area/min/nmol CYP] | Amounts of cabozantinib metabolites (human liver microsomes [3]; [8]) [peak area/incubation time] | Amounts of cabozantinib metabolites (human liver microsomes [3]; [9]) [peak area/incubation time] | Amounts of cabozantinib metabolites (human liver microsomes [3]; [10]) [peak area/incubation time] | Amounts of cabozantinib metabolites (human liver microsomes [3]; [11]) [peak area/incubation time] | Amounts of cabozantinib metabolites (human liver microsomes [3]; [12]) [peak area/incubation time] | Amounts of cabozantinib metabolites (human liver microsomes [3]; [13]) [peak area/incubation time] | Amounts of cabozantinib metabolites (human liver microsomes [3]; [14]) [peak area/incubation time] | also measured
1 | Cc1ccc(-c2c(-c3nn(C)c4ncnc(N5CC[C@H](N6CCCCC6)C5)c34)cnn2C)cc1 [CYP3cide] |  |  |  |  |  |  |  |  |  |  |  |  |  |  |  |  |  |  |  |  | pIC50 ([1]; read-out: IC50 for inhibition of formation of cabozantinib N-oxide): > 8.00; pIC50 ([1]; read-out: IC50 for inhibition of formation of desmethyl cabozantinib): > 8.00; pIC50 ([1]; read-out: IC50 for inhibition of formation of monohydroxy cabozantinib): 5.95
2 | COc1cc2c(Oc3ccc(NC(=O)C4(C(=O)Nc5ccc(F)cc5)CC4)cc3)ccnc2cc1O [M2, desmethyl cabozantinib] | 0.033 | 0.695 * | −0.015 | 0.140 | 0.841 *** | 0.086 | 0.193 | 0.315 | 0.654 * | 0.280 | 0.794 ** | 1.44 ± 0.03 | 5.70 ± 0.24 | 0.335 | 0.149 | 0.185 | 0.329 | 0.625 | 0.256 | 0.371 | Amounts of cabozantinib metabolites (human liver microsomes [3]; [15]): 0.144 peak area/incubation time; Amounts of cabozantinib metabolites (human liver microsomes [3]; [16]): 0.377 peak area/incubation time; Amounts of cabozantinib metabolites (human liver microsomes [3]; [17]): 0.305 peak area/incubation time; Contribution of CYPs other than CYP3A4 to formation of the metabolite in human liver (CYPs in human liver): less than 1%; Amounts of cabozantinib metabolites (human liver microsomes [4]; [18]): 0.130 peak area/incubation time; Amounts of cabozantinib metabolites (human liver microsomes [4]; [19]): 0.467 peak area/incubation time
3 | COc1cc2c(Oc3ccc(NC(=O)C4(C(=O)Nc5ccc(F)cc5)CC4)cc3)cc[n+]([O-])c2cc1OC [M3, cabozantinib N-oxide] | −0.021 | 0.776 ** | −0.043 | 0.030 | 0.728 ** | 0.130 | 0.223 | 0.341 | 0.737 ** | 0.216 | 0.811 ** | 1.54 ± 0.04 | 9.96 ± 0.92 | 1.672 | 0.752 | 1.338 | 1.609 | 3.491 | 1.106 | 1.935 | pIC50 (MET): 6.72; Increase of oxidation / metabolite formation by co-expression of cyt b5 with CYP3A4 (CYP3A4 + cyt b5; Supersomes with cyt b5 vs without, 50 µM cabozantinib): 4.6 fold; Amounts of cabozantinib metabolites (human liver microsomes [3]; [15]): 0.644 peak area/incubation time; Amounts of cabozantinib metabolites (human liver microsomes [3]; [16]): 1.537 peak area/incubation time; Amounts of cabozantinib metabolites (human liver microsomes [3]; [17]): 1.359 peak area/incubation time; Contribution of CYPs other than CYP3A4 to formation of the metabolite in human liver (CYPs in human liver): less than 1%; pIC50 (RET): < 6.00; pIC50 (VEGFR2): 6.85; Amounts of cabozantinib metabolites (human liver microsomes [4]; [18]): 0.607 peak area/incubation time; Amounts of cabozantinib metabolites (human liver microsomes [4]; [19]): 2.228 peak area/incubation time
4 | CC(=O)N1CCN(c2ccc(OCC3COC(Cn4ccnc4)(c4ccc(Cl)cc4Cl)O3)cc2)CC1 (centres unmarked) [ketoconazole] |  |  |  |  |  |  |  |  |  |  |  |  |  |  |  |  |  |  |  |  | IC50 at 20 min [5]: < 10 nM; IC50 at 20 min [6]: < 10 nM; IC50 at 20 min [7]: < 10 nM
